The values that follow are results of earlier work, collected in patent publication US20090155357A1, “Alcohol Resistant Pharmaceutical Formulations” (priority 2005, published 2009).

The conditions of data set [1]: solubility in water.
The conditions of data set [2]: solubility in alcohol.

For `CCCCCCCCCCCCCCCCCC(=O)OCC(O)CO` (stereo not shown) [Glyceryl Monostearate], the Water entry in data set [1] was “I”. The Alcohol result in data set [2] is recorded as “I”.
For the compound `CCCCCCCCCCCCCCCC(=O)OCC(O)CO` (stereo not shown) [Glyceryl Palmitate], the Water result in data set [1] was “I”. Further, the Alcohol result in data set [2] is “I”.
Regarding `[O]=[Mg]` [Magnesium Oxide], the Water result in data set [1] was “I”. The Alcohol entry in data set [2] is recorded as “I”.
“Dibasic/Tribasic calcium phosphate dihydrate”: the Water result in data set [1] is given as “I”. Also, the Alcohol result in data set [2] is “I”.
With Glyceryl Behanate, the Water entry in data set [1] is “I”. The Alcohol entry in data set [2] is listed as “I”.
